From patent publication EP3502102A1, “STING INHIBITORS” (ECOLE POLYTECHNIQUE FEDERALE DE LAUSANNE (EPFL), priority 2017, dated 2019)

Columns and labels:
STING [1] = biological target: T1, STING (Mus musculus, UniProt Q3TBT3); test: High-throughput screen and secondary screen in HEK293T cells expressing mCherry-STING, cdG-Syn versus RIG-I; type: cell-based; set-up: expressed in transfected cells; host or cells: HEK293T; details: primary screen and counter-screen; library compounds 10 µM
T1 sequence (Q3TBT3 1-378): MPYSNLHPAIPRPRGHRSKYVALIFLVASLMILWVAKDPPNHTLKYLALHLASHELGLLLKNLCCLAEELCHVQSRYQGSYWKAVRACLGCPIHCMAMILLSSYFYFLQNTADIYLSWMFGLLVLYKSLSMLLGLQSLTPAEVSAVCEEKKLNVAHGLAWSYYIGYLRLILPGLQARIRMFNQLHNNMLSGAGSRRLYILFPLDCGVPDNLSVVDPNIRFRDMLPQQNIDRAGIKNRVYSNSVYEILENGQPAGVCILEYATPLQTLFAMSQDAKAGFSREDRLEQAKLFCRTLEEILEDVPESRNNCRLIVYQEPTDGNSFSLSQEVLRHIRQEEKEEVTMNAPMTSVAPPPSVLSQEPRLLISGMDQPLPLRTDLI
Description: Reporter activity was measured 16 h after compound treatment. A nonlinear regression analysis was performed. […] Circles indicate substitutes compared to C-176. d, e, Chemical compounds from ([…]) in conjunction with IFN-• luciferase reporter, respectively. b, e, f, Values of inhibitor-treated cells were normalized to DMSO-treated cells. […] Cytokine levels were normalized to DMSO-treated control cells. A nonlinear regression analysis was performed for cGAMP stimulation. b, c, BMDMs were pre-treated with C-178 (0.25 µM) and stimulated with cGAMP, cyclic di-GMP, CMA, 90mer dsDNA or LPS for 3 h. The induction of Ifnb1 mRNA levels was assessed by RT-qPCR. d, Heatmaps of RNA sequencing analysis of BMDMs treated with DMSO or CMA and with or without addition of C-178. […] Reporter activity was measured 16 h after transfection and values were normalized to DMSO-treated control cells. c, BMDMs were treated with C-178 (0.25 µM) for 1 h, washed or left untreated and after an additional hour stimulated with cGAMP. […] Flag-STING was immunoprecipitated from whole cell lysate and analysed by autoradiography. In parallel, cell lysates were analysed by immunoblotting for p-TBK1 and STING. d, HEK293T cells expressing STING were treated as indicated (C-178 (1 µM)) and stimulated with CMA for 1.5 h. […] Depicted genes were measured by RT-qPCR.

STING [2] = biological target: T1, STING; test: Blue native gel assay of STING clusters; type: cell-based; set-up: expressed in transfected cells; host or cells: HEK293T; details: C-178, C-176 1 µM, 2-BP 50 µM; CMA 1.5 h
Description: Reporter activity was measured 16 h after compound treatment. A nonlinear regression analysis was performed. […] Circles indicate substitutes compared to C-176. d, e, Chemical compounds from (c) were tested at 0.5 µM for inhibitory activity in HEK293T cells transfected with STING (e) or RIG-I (f) in conjunction with IFN-• luciferase reporter, respectively. b, e, f, Values of inhibitor-treated cells were normalized to DMSO-treated cells. […] Cytokine levels were normalized to DMSO-treated control cells. A nonlinear regression analysis was performed for cGAMP stimulation. b, c, BMDMs were pre-treated with C-178 (0.25 µM) and stimulated with cGAMP, cyclic di-GMP, CMA, 90mer dsDNA or LPS for 3 h. The induction of Ifnb1 mRNA levels was assessed by RT-qPCR. d, Heatmaps of RNA sequencing analysis of BMDMs treated with DMSO or CMA and with or without addition of C-178. […] Reporter activity was measured 16 h after transfection and values were normalized to DMSO-treated control cells. c, BMDMs were treated with C-178 (0.25 µM) for 1 h, washed or left untreated and after an additional hour stimulated with cGAMP. […] Flag-STING was immunoprecipitated from whole cell lysate and analysed by autoradiography. In parallel, cell lysates were analysed by immunoblotting for p-TBK1 and STING. d, HEK293T cells expressing STING were treated as indicated (C-178 (1 µM)) and stimulated with CMA for 1.5 h. […]

Solubility (comparison) = type: physicochemical

Question: For `O=C(Nc1ccc(I)cc1)c1ccc([N+](=O)[O-])o1` [C-176, N-(4-iodophenyl)-5-nitro-2-furamide], which “IFN signal in response to cdG-Syn/STING versus RIG-I” value (STING [1]) is on record?
Answer: selectively reduced the IFN signal in response to cdG-Syn/STING but not to RIG-I

Question: And the “assembly of STING clusters” value (STING [2])?
Answer: blocked

Question: And the “solubility relative to C-178” value (Solubility (comparison))?
Answer: improved solubility
